Data reported in patent US8980934B2, “Kinase inhibitors and method of treating cancer with same” (University Health Network, priority 2012, dated 2015).

Legend:
Assay type in all cases: cell-based
[1] = test system: HCT116 colon cancer cells; assay: Cancer cell growth inhibition, Sulforhodamine B assay; conditions: Homo sapiens, HCT-116, 120 h; HCT116, 5 days culture, SRB; read-out: Cancer Cell Line GI50 Range HCT116
Protocol: (§1) Breast cancer cells (MDA-MB-231), colon cancer cells (HCT116) and ovarian cancer cells (PA-1) were seeded (1000 to 4000 in 80 μl per well depending on the cell growth rate) into 96 well plates 24 hours before compound overlay. Compounds were prepared as 10 mM stock solutions in 100% DMSO which were diluted with DMEM (Dulbecco's Modified Eagle's Medium) cell growth Medium (Invitrogen, Burlington, ON, Canada) containing 10% FBS (Fetal Bovine Serum) to concentrations ranging from 50 nM to 250 μM. Aliquots (20 μl) from each concentration were overlaid to 80 μl of the pre-seeded cells in the 96 well plates to make final concentrations of 10 nM to 50 μM. The cells were cultured for 5 days before the Sulforhodamine B assay (SRB) was performed to determine the compound's cell growth inhibition activity.
(§2) Sulforhodamine B (purchased from Sigma, Oakville, ON, Canada) is a water-soluble dye that binds to the basic amino acids of the cellular proteins. Thus, colorimetric measurement of the bound dye provides an estimate of the total protein mass that is related to the cell number. the cells are fixed in situ by gently aspirating off the culture media and adding 50 μl ice cold 10% Trichloroacetic Acid (TCA) per well and incubate at 4° C. for 30-60 min. The plates are washed with H2O five times and allowed to air dry for 5 min. Addition of 50 μl 0.4% (w/v) SRB solution in 1% (v/v) acetic acid to each well and incubatation for 30 min at RT completes the staining reaction. Following staining, plates are washed four times with 1% acetic acid to remove unbound dye and then allowed to air dry for 5 min. The stain is solubilized with 100 μl of 10 mM Tris pH 10.5 per well. Absorbance is read at 570 nm.
(§3) The percentage (%) of relative growth inhibition was calculated by comparing to DMSO treated only cells (100%). GI50's were determined for compounds with cytotoxic activity. The GI50 was calculated using GraphPad PRISM software (GraphPad Software, Inc., San Diego, Calif., USA). GI50 (growth inhibition) is the compound concentration that causes 50% inhibition of cell growth.
(§4) In Table 1 below, GI50 value ranges for several compound examples against breast cancer cell lines (MDA-MB-231), colon cancer cell lines (HCT116) and ovarian cancer cell lines (PA-1) are given. […] The GI50 ranges are indicated as “A,” “B,” and “C,” for values less than or equal to 0.1 μM; those greater than 0.1 μM and less than or equal to 0.5 μM; and those greater than 0.5 μM, respectively.

[2] = test system: MDA-MB-231 breast cancer cells; assay: as above; conditions: Homo sapiens, 120 h; MDA-MB-231, 5 days culture, SRB; read-out: Cancer Cell Line GI50 Range MDA-MB-231
Protocol: as §1, §2, §3, §4

[3] = test system: PA-1 ovarian cancer cells; assay: as above; conditions: 120 h; PA-1, 5 days culture, SRB; read-out: Cancer Cell Line GI50 Range PA-1
Protocol: as §1, §2, §3, §4

[4] = test system: colon 12 tumor initiating cells; assay: Colon tumor-initiating cell growth inhibition, Alamar Blue assay; conditions: 216 h, colon TICs, 9 days culture, read-out: Tumor Initiating Cell Line GI50 Range colon 12
Source text: (§5) Non-tissue or tissure cultured treated T-75 flask and 96-well plates were purchased from VWR. Vitamin B-27 supplement, MEM NEAA (minimum essential medium non essential amino acids), sodium pyruvate, L-glutamine, N2 supplement, penicillin-streptomycin and fungizone/amphotericin B were obtained from Invitrogen. Lipid mixture, heparin and EGF were purchased from Sigma; bFGF from BD Biosciences. Colon tumor initiating cells (TICs) were routinely maintained using non-tissue cultured treated T-75 flasks in DMEM:F12 medium containing 0.2XB-27 supplement, 4 ug/ml heparin, 1XMEM NEAA, 1Xsodium pyruvate, 1 mM glutamine, 10 pg/ul bFGF, 20 pg/ul EGF, 1×N2 supplement, lipid mixture, penicillin-streptomycin and fungizone/amphotericin B. Ovarian TICs were routinely maintained using tissue cultured treated T-75 flasks in DMEM:F12 medium containing 1XB-27 supplement, 4 ug/ml heparin, 20 pg/ul bFGF, 20 pg/ul EGF and penicillin-streptomycin.
(§6) Compounds described herein were dissolved in DMSO and further diluted in cell culture medium for GI50 determination. Colon TICs were trypsinized and seeded into non-tissue cultured treated 96-well plates with 4,000 cells/well. After 24 h, compound was added into the cell culture at different concentrations, and the final concentration of DMSO was adjusted to 0.1%. Cells were then cultured at 37° C. for 9 days. Ovarian TICs were trypsinized and seeded into tissue cultured treated 96-well plates with 1,000 cells/well. After 24 h, compound was added into the cell culture at different concentrations, and the final concentration of DMSO was adjusted to 0.1%. Cells were then cultured at 37° C. for 6 days. Cell viability was assessed by Alamar Blue assay: 10 ul of Alamar Blue was added into each well. After 4 hours incubation at 37° C., fluorescence was recorded at excitation 544 and emission 590. GI50 (Growth inhibition) was calculated using GraphPad Prism 4.0 software. Cell growth inhibition data for compounds described herein is tabulated below (Table 2). The GI50 ranges are indicated as “A,” and “B”, for values less than or equal to 0.1 μM: those greater than 0.1 μM and less than or equal to 0.5 μM, respectively.

[5] = test system: ovarian 2393A tumor initiating cells; assay: Ovarian tumor-initiating cell growth inhibition, Alamar Blue assay; conditions: 144 h, ovarian TICs, 6 days culture, read-out: Tumor Initiating Cell Line GI50 Range ovarian 2393A
Source text: as §5, §6

| SMILES | GI50 [1] [nM] | GI50 [2] [nM] | GI50 [3] [nM] | GI50 [4] [nM] | GI50 [5] [nM] |
| --- | --- | --- | --- | --- | --- |
| O=C(N[C@@H](c1ccccn1)C1CCCC1)c1ccc2[nH]nc(-c3ccc(N4CC5(COC5)C4)cc3)c2c1 [Example A8, (R)-3-(4-(2-Oxa-6-azaspiro[3.3]heptan-6-yl)phenyl)-N-(cyclopentyl(pyridin-2-yl)methyl)-1H-indazole-5-carboxamide] | ≤ 100 | ≤ 100 | ≤ 100 | ≤ 100 | ≤ 100 |
| O=C(NC(c1ccccn1)C1CC1)c1ccc2[nH]nc(-c3ccc(N4CC5(COC5)C4)cc3)c2c1 (stereo not drawn) [Example A4, 3-(4-(2-Oxa-6-azaspiro[3.3]heptan-6-yl)phenyl)-N-(cyclopropyl(pyridin-2-yl)methyl)-1H-indazole-5-carboxamide] | ≤ 100 | ≤ 100 | ≤ 100 | 100 to 500 | ≤ 100 |
| O=C(N[C@H](c1ccccn1)C1CCCC1)c1ccc2[nH]nc(-c3ccc(N4CC5(COC5)C4)cc3)c2c1 [Example A2, (S)-3-(4-(2-oxa-6-azaspiro[3.3]heptan-6-yl)phenyl)-N-(cyclopentyl(pyridin-2-yl)methyl)-1H-indazole-5-carboxamide] | ≤ 100 | ≤ 100 | ≤ 100 | ≤ 100 | ≤ 100 |
| O=C(N[C@H](c1ccccc1)C1CC1)c1ccc2[nH]nc(-c3ccc(N4CC5(COC5)C4)cc3)c2c1 [Example A10, 3-(4-(2-Oxa-6-azaspiro[3.3]heptan-6-yl)phenyl)-N-((S)-cyclopropyl(phenyl)methyl)-1H-indazole-5-carboxamide] | ≤ 100 | 100 to 500 | ≤ 100 | ≤ 100 | 100 to 500 |
| O=C(N[C@@H](c1ccccn1)C1CC1)c1ccc2[nH]nc(-c3ccc(N4CC5(COC5)C4)cc3)c2c1 [Example A6, (R)-3-(4-(2-oxa-6-azaspiro[3.3]heptan-6-yl)phenyl)-N-(cyclopropyl(pyridin-2-yl)methyl)-1H-indazole-5-carboxamide] | ≤ 100 | 100 to 500 | ≤ 100 | 100 to 500 | 100 to 500 |
| O=C(Nc1ccc2[nH]nc(-c3ccc(N4CC5(COC5)C4)cc3)c2c1)C(c1ccsc1)N1CCCC1 (stereo not drawn) [Example A1, N-(3-(4-(2-oxa-6-azaspiro[3.3]heptan-6-yl)phenyl)-1H-indazol-5-yl)-2-(pyrrolidin-1-yl)-2-(thiophen-3-yl)acetamide] | ≤ 100 | ≤ 100 | ≤ 100 | ≤ 100 | ≤ 100 |
| O=C(NC(c1ccccn1)C1CCCC1)c1ccc2[nH]nc(-c3ccc(N4CC5(COC5)C4)cc3)c2c1 (stereo not drawn) [Example A7, 3-(4-(2-Oxa-6-azaspiro[3.3]heptan-6-yl)phenyl)-N-(cyclopentyl(pyridin-2-yl)methyl)-1H-indazole-5-carboxamide] | ≤ 100 | ≤ 100 | ≤ 100 | ≤ 100 | ≤ 100 |
| CC(C)C(NC(=O)c1ccc2[nH]nc(-c3ccc(N4CC5(COC5)C4)cc3)c2c1)c1ccccc1Cl (stereo not drawn) [Example A11, 3-(4-(2-Oxa-6-azaspiro[3.3]heptan-6-yl)phenyl)-N-(1-(2-chlorophenyl)-2-methylpropyl)-1H-indazole-5-carboxamide] | ≤ 100 | ≤ 100 | ≤ 100 | ≤ 100 | ≤ 100 |
| O=C(N[C@H](c1ccccn1)C1CC1)c1ccc2[nH]nc(-c3ccc(N4CC5(COC5)C4)cc3)c2c1 [Example A5, (S)-3-(4-(2-Oxa-6-azaspiro[3.3]heptan-6-yl)phenyl)-N-(cyclopropyl(pyridin-2-yl)methyl)-1H-indazole-5-carboxamide] | ≤ 100 | ≤ 100 | ≤ 100 | 100 to 500 | ≤ 100 |
| O=C(N[C@H](c1ccccn1)C1CC1)c1ccc2[nH]nc(-c3ccc(N4CC5(CCOCC5)C4)cc3)c2c1 [Example A18, (S)-3-(4-(7-Oxa-2-azaspiro[3.5]nonan-2-yl)phenyl)-N-(cyclopropyl(pyridin-2-yl)methyl)-1H-indazole-5-carboxamide] | ≤ 100 | ≤ 100 | ≤ 100 | ≤ 100 | 100 to 500 |

Continued, values first:

| GI50 [1] [nM] | GI50 [2] [nM] | GI50 [3] [nM] | GI50 [4] [nM] | GI50 [5] [nM] | SMILES |
| --- | --- | --- | --- | --- | --- |
| ≤ 100 | ≤ 100 | ≤ 100 | ≤ 100 | 100 to 500 | O=C(N[C@H](c1ccccn1)C1CCCC1)c1ccc2[nH]nc(-c3ccc(N4CC5(CCOCC5)C4)cc3)c2c1 [Example A19, (S)-3-(4-(7-Oxa-2-azaspiro[3.5]nonan-2-yl)phenyl)-N-(cyclopentyl(pyridin-2-yl)methyl)-1H-indazole-5-carboxamide] |
| ≤ 100 | ≤ 100 | ≤ 100 | ≤ 100 | ≤ 100 | O=C(NC(c1ncccn1)C1CCCC1)c1ccc2[nH]nc(-c3ccc(N4CC5(COC5)C4)cc3)c2c1 (stereo not drawn) [Example A24, 3-(4-(2-oxa-6-azaspiro[3.3]heptan-6-yl)phenyl)-N-(cyclopentyl(pyrimidin-2-yl)methyl)-1H-indazole-5-carboxamide] |
| ≤ 100 | ≤ 100 | ≤ 100 | ≤ 100 | ≤ 100 | CC(C)[C@H](NC(=O)c1ccc2[nH]nc(-c3ccc(N4CC5(CC(O)C5)C4)cc3)c2c1)c1ccccc1Cl [Example A32, (S)-N-(1-(2-Chlorophenyl)-2-methylpropyl)-3-(4-(6-hydroxy-2-azaspiro[3.3]heptan-2-yl)phenyl)-1H-indazole-5-carboxamide] |
| ≤ 100 | ≤ 100 | ≤ 100 | ≤ 100 | ≤ 100 | CC(C)[C@H](NC(=O)c1ccc2[nH]nc(-c3ccc(N4CC5(CCO5)C4)cc3)c2c1)c1ccccc1Cl [Example A23, (S)-3-(4-(1-Oxa-6-azaspiro[3.3]heptan-6-yl)phenyl)-N-(1-(2-chlorophenyl)-2-methylpropyl)-1H-indazole-5-carboxamide] |
| ≤ 100 | ≤ 100 | ≤ 100 | ≤ 100 | ≤ 100 | O=C(N[C@H](c1ccccn1)C1CCCC1)c1ccc2[nH]nc(-c3ccc(N4CC5(CCO5)C4)cc3)c2c1 [Example A20, (S)-3-(4-(1-oxa-6-azaspiro[3.3]heptan-6-yl)phenyl)-N-(cyclopentyl(pyridin-2-yl)methyl)-1H-indazole-5-carboxamide] |
